Results: PubChem BioAssay (NCI)
Where “and” joins values, the source holds several entries; their conditions need not be identical. Equal entries are not always repeated.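 Compound exposure: 48 hours, 5 concentrations, 96-well plates. Here, GI50 denotes the concentration required for 50% inhibition of growth. At the TGI there is no net growth.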

How the values were obtained:
Test in all cases: growth of human tumour cells (NCI), 48 h
HOP-92 NSCLC = system: HOP-92 NSCLC
SN12C renal = system: SN12C renal
SK-MEL-28 melanoma = system: SK-MEL-28 melanoma
OVCAR-3 ovarian = system: OVCAR-3 ovarian
SW-620 colon = system: SW-620 colon
MOLT-4 leukemia = system: MOLT-4 leukemia
786-0 renal = system: 786-0 renal
EKVX NSCLC = system: EKVX NSCLC
UACC-257 melanoma = system: UACC-257 melanoma
CAKI-1 renal = system: CAKI-1 renal

Compound	TGI (HOP-92 NSCLC)	TGI (SN12C renal)	TGI (SK-MEL-28 melanoma)	TGI (OVCAR-3 ovarian)	TGI (SW-620 colon)	TGI (MOLT-4 leukemia)	TGI (786-0 renal)	TGI (EKVX NSCLC)	TGI (UACC-257 melanoma)	TGI (CAKI-1 renal)	GI50 (HOP-92 NSCLC)	GI50 (SN12C renal)	GI50 (SK-MEL-28 melanoma)	GI50 (OVCAR-3 ovarian)	GI50 (SW-620 colon)	GI50 (MOLT-4 leukemia)	GI50 (786-0 renal)	GI50 (EKVX NSCLC)	GI50 (UACC-257 melanoma)	GI50 (CAKI-1 renal)
CCOC(=O)Nc1nc(-c2ccccc2)c(C)s1	90.5 µM	> 100 µM	> 100 µM	> 100 µM	> 100 µM	45.5 µM	> 100 µM	> 100 µM	> 100 µM	> 100 µM	–	–	–	–	–	–	–	–	–	–
Cc1cccc2c1NC(=O)[C@@H](NC(=O)[C@H](CCC(F)(F)F)[C@H](CCC(F)(F)F)C(N)=O)N=C2c1cccc(F)c1	57.1 µM	> 100 µM	> 100 µM	> 100 µM	> 100 µM	> 100 µM	56.3 µM	> 100 µM	> 100 µM	> 100 µM	14.4 µM	28.4 µM	> 100 µM	33.3 µM	> 100 µM	> 100 µM	20.6 µM	40.5 µM	48.6 µM	> 100 µM
CCOC(=O)Nc1ccc2c3c(cccc13)-c1ccccc1-2	> 100 µM	> 100 µM	> 100 µM	8.92 µM	> 100 µM	> 100 µM	> 100 µM	> 100 µM	> 100 µM	> 100 µM	> 100 µM	5.98 µM	10.7 µM	2.72 µM	3.92 µM	8.5 µM	8 µM	2.18 µM	> 100 µM	3.29 µM
CC12OC(C(=O)C13CC3)C1C(=O)c3cccc(O)c3C(=O)C12 (configuration not stated)	> 100 µM	18.9 µM	> 61.4 µM	19.9 µM	> 100 µM	> 100 µM	19.2 µM	37.6 µM	50.8 µM	11.1 µM	31.1 µM	4.96 µM	23.1 µM	2.49 µM	4.41 µM	1.83 µM	6.45 µM	11.8 µM	19.6 µM	3.43 µM
Cc1cc2c(=O)cc(-c3ccc(O)cc3)oc2c(C(=O)O)c1C	> 100 µM	> 100 µM	> 100 µM	> 100 µM	> 100 µM	> 100 µM	> 100 µM	> 100 µM	> 100 µM	69.2 µM	–	–	–	–	–	–	–	–	–	–
Oc1c(CCl)cc(Cl)cc1Cc1cc(Cl)cc(Cc2cc(Cl)cc(CCl)c2O)c1O	5.81 µM	8.79 µM	16.1 µM	15 µM	14.2 µM	13.4 µM	25.3 µM	15.8 µM	29.9 µM	17.7 µM	1.91 µM	2.56 µM	3.1 µM	3.59 µM	3.92 µM	2.67 µM	4.61 µM	2.89 µM	4.66 µM	3.37 µM
N#CC1(C#N)C2C=CC(C3CC=CC32)C1(C#N)C#N (configuration not stated)	14.8 µM	18.4 µM	21.6 µM	5.1 µM and 14.5 µM	5.03 µM and 22.6 µM	3.5 µM and 3.55 µM	3.36 µM and 7.76 µM	24 µM	21 µM	3.72 µM and 18.5 µM	–	–	–	6.81 µM	2.64 µM	1.2 µM	2.19 µM	–	–	8.5 µM
Nc1ncnc2occ(-c3ccc(NC(=O)Nc4cc(C(F)(F)F)ccc4F)cc3)c12	12.1 µM and 11.5 µM	21.2 µM and 11.6 µM	14.3 µM and 11.5 µM	12.1 µM and 9.52 µM	23.7 µM and 12.1 µM	23.6 µM and 14.4 µM	16.4 µM and 10.3 µM	16.6 µM and 13.2 µM	15.6 µM and 8.64 µM	18.2 µM and 9 µM	3.98 µM and 3.4 µM	4 µM and 1.47 µM	5.73 µM and 4.57 µM	5.44 µM and 3.61 µM	7.71 µM and 4.14 µM	7.47 µM and 3.7 µM	6.63 µM and 4.43 µM	5.12 µM and 3.97 µM	6.19 µM and 4.11 µM	4.36 µM and 1.78 µM
CO[C@@H]1[C@H](N(C)C(=O)c2ccccc2)C[C@@H]2O[C@]1(C)n1c3ccccc3c3c4c(c5c6ccccc6n2c5c31)C(=O)NC4=O	> 100 µM	> 100 µM	> 100 µM	> 100 µM	> 100 µM	> 100 µM	> 100 µM	> 100 µM	> 100 µM	2.66 µM	0.173 µM	0.459 µM	> 100 µM	6.28 µM	0.732 µM	1.96 µM	0.744 µM	0.858 µM	> 100 µM	0.232 µM
CN1CCN(C(=O)OCc2nc3c(N4CCOCC4)nc(-c4ccccc4)nc3n2C)CC1	2.24 µM	2.12 µM	2.81 µM	1.16 µM	1.19 µM	3.12 µM	2.36 µM	2.94 µM	3.17 µM	1.83 µM	0.765 µM	0.814 µM	1.48 µM	0.295 µM	0.329 µM	0.526 µM	0.993 µM	1.39 µM	1.47 µM	0.471 µM
O=C(CSc1nc2ccc([N+](=O)[O-])cc2[nH]1)Nc1ccc([N+](=O)[O-])cc1	2.22 µM	10.6 µM	14.2 µM	10.9 µM	17.6 µM	> 32.3 µM	13.5 µM	10.8 µM	6.71 µM	7.67 µM	0.293 µM	2.26 µM	2.82 µM	2.05 µM	3.24 µM	2.81 µM	3.02 µM	2.23 µM	1.75 µM	2.08 µM
CC(=O)OC1C(COC(N)=O)OC(n2c(-c3ccc(C)cc3)cc(-c3ccccc3)c(C#N)c2=O)C(OC(C)=O)C1OC(C)=O (configuration not stated)	> 100 µM	> 100 µM	> 100 µM	> 100 µM	> 100 µM	> 100 µM	> 100 µM	> 100 µM	> 100 µM	> 100 µM	–	–	–	–	–	–	–	–	–	–
CC(C)c1ccc2c(c1)CCC1C(C)(CN)CCCC21C (configuration not stated)	2.97 µM	3.16 µM	3.11 µM	3.26 µM	2.9 µM	3.61 µM	2.89 µM	3.4 µM	3.03 µM	2.96 µM	–	–	–	–	–	–	–	–	–	–
Cc1cc(C)c2c(=O)cc(-c3ccc(F)cc3)[nH]c2n1	90.3 µM	> 100 µM	> 100 µM	> 100 µM	> 100 µM	> 100 µM	> 100 µM	> 100 µM	> 100 µM	> 100 µM	–	–	–	43.5 µM	–	–	78.8 µM	–	–	–
